Reference: patent US9464084B2, “P2X7 modulators” (Janssen Pharmaceutica NV, priority 2013, dated 2016)
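Also: PBMCs from donor human blood, with a further 1.5 h incubation of the cells in the assay.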

These compounds were tested against P2X7 (Homo sapiens (Human), UniProt Q99572) (assay: P2X7 antagonism in human PBMCs (LPS + Bz-ATP induced IL-1β release, ELISA)). Conditions: compound 1 μM, LPS 30 ng/ml, Bz-ATP 0.5 mM.
Chain of P2X7 (Q99572 whole entry): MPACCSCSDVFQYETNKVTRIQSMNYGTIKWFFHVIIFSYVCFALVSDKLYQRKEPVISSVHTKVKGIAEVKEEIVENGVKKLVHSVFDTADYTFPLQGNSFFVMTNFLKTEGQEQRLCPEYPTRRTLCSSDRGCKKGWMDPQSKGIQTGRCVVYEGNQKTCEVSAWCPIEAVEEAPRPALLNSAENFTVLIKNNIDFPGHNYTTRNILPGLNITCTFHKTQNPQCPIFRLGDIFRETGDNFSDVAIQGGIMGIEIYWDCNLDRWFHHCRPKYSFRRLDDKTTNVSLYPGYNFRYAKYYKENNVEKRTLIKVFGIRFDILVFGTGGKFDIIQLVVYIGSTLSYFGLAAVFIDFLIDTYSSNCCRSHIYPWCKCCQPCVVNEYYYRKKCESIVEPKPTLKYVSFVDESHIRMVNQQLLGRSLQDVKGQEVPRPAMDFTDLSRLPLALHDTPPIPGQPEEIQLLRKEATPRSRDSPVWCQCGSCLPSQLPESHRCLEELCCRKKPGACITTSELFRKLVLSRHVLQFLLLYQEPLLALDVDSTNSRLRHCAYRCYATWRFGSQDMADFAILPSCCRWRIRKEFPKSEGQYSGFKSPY
Format: cell-based
For O=C(c1cccc(C(F)(F)F)c1Cl)N1CCc2c(ncn2-c2ccccc2)C1CO (stereo not shown) [Example 30, (5-{[2-Chloro-3-(trifluoromethyl)phenyl]carbonyl}-1-phenyl-4,5,6,7-tetrahydro-1H-imidazo[4,5-c]pyridin-4-yl)methanol], the “PBMC 1 μM (% control)” value was 87.0 % control. CC1c2ncn(-c3ccccn3)c2CCN1C(=O)c1cccc(C(F)(F)F)c1Cl (stereo not shown) [Example 17, (2-Chloro-3-(trifluoromethyl)phenyl)(4-methyl-1-(pyridin-2-yl)-6,7-dihydro-1H-imidazo[4,5-c]pyridin-5(4H)-yl)methanone] was tested, and the “PBMC 1 μM (% control)” value was 6.5 % control. Cn1nc2c(c1-c1cccnc1)CCN(C(=O)c1cccc(C(F)(F)F)c1Cl)C2 [Example 107, 6-{[2-Chloro-3-(trifluoromethyl)phenyl]carbonyl}-2-methyl-3-pyridin-3-yl-4,5,6,7-tetrahydro-2H-pyrazolo[3,4-c]pyridine] was tested, and the “PBMC 1 μM (% control)” value was 24.7 % control. O=C(c1cccc(C(F)(F)F)c1Cl)N1CCc2c(ncn2-c2cc(F)cc(F)c2)C1 [Example 7, (2-Chloro-3-(trifluoromethyl)phenyl)(1-(3,5-difluorophenyl)-6,7-dihydro-1H-imidazo[4,5-c]pyridin-5(4H)-yl)methanone] was tested, and the “PBMC 1 μM (% control)” value was 98.7 % control. O=C(c1cccc2c1OC(F)(F)O2)N1CCc2c(ncn2-c2ccccc2)C1 [Example 50, 5-[(2,2-Difluoro-1,3-benzodioxol-4-yl)carbonyl]-1-phenyl-4,5,6,7-tetrahydro-1H-imidazo[4,5-c]pyridine] was tested, and the “PBMC 1 μM (% control)” value was 96.0 % control. C[C@H]1c2nnn(-c3cnccn3)c2CCN1C(=O)c1cccc(C(F)(F)F)c1Cl (single isomer, unassigned) [Example 75, (4 S*)-5-{[2-Chloro-3-(trifluoromethyl)phenyl]carbonyl}-4-methyl-1-pyrazin-2-yl-4,5,6,7-tetrahydro-1H-[1,2,3]triazolo[4,5-c]pyridine] was tested, and the “PBMC 1 μM (% control)” value was 5.2 % control.

Same assay, conditions: compound 10 μM, LPS 30 ng/ml, Bz-ATP 0.5 mM
With C[C@H]1c2nnn(-c3ncc(F)cn3)c2CCN1C(=O)c1cccc(C(F)(F)F)c1F (single isomer, unassigned) [Example 178, (S*)-(2-fluoro-3-(trifluoromethyl)phenyl)(1-(5-fluoropyrimidin-2-yl)-4-methyl-6,7-dihydro-1H-[1,2,3]triazolo[4,5-c]pyridin-5(4H)-yl)methanone] the “PBMC 10 μM (% control)” value was −4.7 % control. With C[C@@H]1c2nnn(-c3cnccn3)c2CCN1C(=O)c1ccc(F)c(Cl)c1Cl (single isomer, unassigned) [Example 143, (R*)-(2,3-Dichloro-4-fluorophenyl)(4-methyl-1-(pyrazin-2-yl)-6,7-dihydro-1H-[1,2,3]triazolo[4,5-c]pyridin-5(4H)-yl)methanone] the “PBMC 10 μM (% control)” value was 58.0 % control. For C[C@@H]1Cc2c(nnn2-c2ncc(F)cn2)CN1C(=O)c1cccc(C(F)(F)F)c1Cl (single isomer, unassigned) [Example 201, (6R*)-5-{[2-Chloro-3-(trifluoromethyl)phenyl]carbonyl}-1-(5-fluoropyrimidin-2-yl)-6-methyl-4,5,6,7-tetrahydro-1H-[1,2,3]triazolo[4,5-c]pyridine], the “PBMC 10 μM (% control)” value was 20.4 % control. C[C@H]1Cc2c(nnn2-c2ncc(F)cn2)CN1C(=O)c1ccnc(C(F)(F)F)c1F (single isomer, unassigned) [Example 228, (S*)-(3-fluoro-2-(trifluoromethyl)pyridin-4-yl)(1-(5-fluoropyrimidin-2-yl)-6-methyl-6,7-dihydro-1H-[1,2,3]triazolo[4,5-c]pyridin-5(4H)-yl)methanone] was tested, and the “PBMC 10 μM (% control)” value was 0.1 % control. C[C@H]1c2nnn(-c3ncc(F)cn3)c2CCN1C(=O)c1cccc(C(F)(F)F)c1Cl (single isomer, unassigned) [Example 157, (S*)-(2-Chloro-3-(trifluoromethyl)phenyl)(1-(5-fluoropyrimidin-2-yl)-4-methyl-6,7-dihydro-1H-[1,2,3]triazolo[4,5-c]pyridin-5(4H)-yl)methanone] was tested, and the “PBMC 10 μM (% control)” value was −1.4 % control. For Cc1cccc(-n2nnc3c2CCN(C(=O)c2cccc(Cl)c2Cl)C3C)n1 (stereo not shown) [Example 233, (2,3-dichlorophenyl)(4-methyl-1-(6-methylpyridin-2-yl)-6,7-dihydro-1H-[1,2,3]triazolo[4,5-c]pyridin-5(4H)-yl)methanone], the “PBMC 10 μM (% control)” value was −0.1 % control. Cc1ccc(-n2nnc3c2CCN(C(=O)c2cccc(C(F)(F)F)c2Cl)[C@H]3C)nc1 (single isomer, unassigned) [Example 239, (S*)-(2-chloro-3-(trifluoromethyl)phenyl)(4-methyl-1-(5-methylpyridin-2-yl)-6,7-dihydro-1H-[1,2,3]triazolo[4,5-c]pyridin-5(4H)-yl)methanone] was tested, and the “PBMC 10 μM (% control)” value was 86.9 % control. C[C@H]1Cc2c(nnn2-c2cnccn2)CN1C(=O)c1cccc(C(F)(F)F)c1Cl (single isomer, unassigned) [Example 212, (6S*)-5-{[2-Chloro-3-(trifluoromethyl)phenyl]carbonyl}-6-methyl-1-pyrazin-2-yl-4,5,6,7-tetrahydro-1H-[1,2,3]triazolo[4,5-c]pyridine] was tested, and the “PBMC 10 μM (% control)” value was 17.4 % control. In the case of CC1Cc2c(nnn2-c2cc[nH]n2)CN1C(=O)c1cccc(C(F)(F)F)c1Cl (stereo not shown) [Example 210, (2-chloro-3-(trifluoromethyl)phenyl)(6-methyl-1-(1H-pyrazol-3-yl)-6,7-dihydro-1H-[1,2,3]triazolo[4,5-c]pyridin-5(4H)-yl)methanone], the “PBMC 10 μM (% control)” value is reported as 0.8 % control. For CCc1nc2c(n1-c1ccccc1)CCN(C(=O)c1cccc(C(F)(F)F)c1Cl)C2C (stereo not shown) [Example 184, (2-Chloro-3-(trifluoromethyl)phenyl)(2-ethyl-4-methyl-1-phenyl-6,7-dihydro-1H-imidazo[4,5-c]pyridin-5(4H)-yl)methanone], the “PBMC 10 μM (% control)” value was −0.7 % control. With O=C(c1cccc(C(F)(F)F)c1Cl)N1CCc2[nH]cnc2C1C(F)(F)F (stereo not shown) [Example 39, 5-{[2-Chloro-3-(trifluoromethyl)phenyl]carbonyl}-4-(trifluoromethyl)-4,5,6,7-tetrahydro-1H-imidazo[4,5-c]pyridine] the “PBMC 10 μM (% control)” value was 112.0 % control. C[C@@H]1Cc2c(nnn2-c2ccc(F)cc2)[C@H](C)N1C(=O)c1cccc(C(F)(F)F)c1Cl [Example 286, (2-chloro-3-(trifluoromethyl)phenyl)((4S,6R)-1-(4-fluorophenyl)-4,6-dimethyl-6,7-dihydro-1H-[1,2,3]triazolo[4,5-c]pyridin-5(4H)-yl)methanone] was tested, and the “PBMC 10 μM (% control)” value was 5.8 % control. CC1Cc2c(nnn2-c2ncccc2F)CN1C(=O)c1cccc(C(F)(F)F)c1Cl (stereo not shown) [Example 122, 5-{[2-Chloro-3-(trifluoromethyl)phenyl]carbonyl}-1-(3-fluoropyridin-2-yl)-6-methyl-4,5,6,7-tetrahydro-1H-[1,2,3]triazolo[4,5-c]pyridine] was tested, and the “PBMC 10 μM (% control)” value was 0.2 % control. CC1Cc2c(nnn2-c2ccc(F)cc2)C(C)N1C(=O)c1cccc(C(F)(F)F)c1Cl (stereo not shown) [Example 243, (2-Chloro-3-(trifluoromethyl)phenyl)(1-(4-fluorophenyl)-4,6-dimethyl-6,7-dihydro-1H-[1,2,3]triazolo[4,5-c]pyridin-5(4H)-yl)methanone] was tested, and the “PBMC 10 μM (% control)” value was 1.0 % control. For C[C@@H]1Cc2c(nnn2-c2ccc(F)cc2)[C@@H](C)N1C(=O)c1cccc(C(F)(F)F)c1Cl [Example 284, (2-chloro-3-(trifluoromethyl)phenyl)((4R,6R)-1-(4-fluorophenyl)-4,6-dimethyl-6,7-dihydro-1H-[1,2,3]triazolo[4,5-c]pyridin-5(4H)-yl)methanone], the “PBMC 10 μM (% control)” value was 18.2 % control. With Cc1ccnc(-n2nnc3c2CCN(C(=O)c2cccc(C(F)(F)F)c2Cl)C3C)c1 (stereo not shown) [Example 299, (2-chloro-3-(trifluoromethyl)phenyl)(4-methyl-1-(4-methylpyridin-2-yl)-6,7-dihydro-1H-[1,2,3]triazolo[4,5-c]pyridin-5(4H)-yl)methanone] the “PBMC 10 μM (% control)” value was 1.5 % control. In the case of C[C@H]1c2n[nH]c(-c3ncc(F)cn3)c2CCN1C(=O)c1cccc(C(F)(F)F)c1Cl (single isomer, unassigned) [Example 224, (S*)-(2-chloro-3-(trifluoromethyl)phenyl)(3-(5-fluoropyrimidin-2-yl)-7-methyl-4,5-dihydro-2H-pyrazolo[3,4-c]pyridin-6(7H)-yl)methanone], the “PBMC 10 μM (% control)” value is reported as 103.3 % control. C[C@H]1c2nnn(-c3ccn[nH]3)c2CCN1C(=O)c1cccc(C(F)(F)F)c1Cl (single isomer, unassigned) [Example 134, (S*)-(2-Chloro-3-(trifluoromethyl)phenyl)(4-methyl-1-(1H-pyrazol-5-yl)-6,7-dihydro-1H-[1,2,3]triazolo[4,5-c]pyridin-5(4H)-yl)methanone] was tested, and the “PBMC 10 μM (% control)” value was 12.3 % control. CC1Cc2c(nnn2-c2ccccc2)C(C)N1C(=O)c1cccc(C(F)(F)F)c1Cl (stereo not shown) [Example 240, (2-Chloro-3-(trifluoromethyl)phenyl)(4,6-dimethyl-1-phenyl-6,7-dihydro-1H-[1,2,3]triazolo[4,5-c]pyridin-5(4H)-yl)methanone] was tested, and the “PBMC 10 μM (% control)” value was −8.9 % control. With C[C@H]1c2nnn(-c3cnccn3)c2CCN1C(=O)c1cccc(C(F)(F)F)c1Cl (single isomer, unassigned) [Example 75, (4 S*)-5-{[2-Chloro-3-(trifluoromethyl)phenyl]carbonyl}-4-methyl-1-pyrazin-2-yl-4,5,6,7-tetrahydro-1H-[1,2,3]triazolo[4,5-c]pyridine] the “PBMC 10 μM (% control)” value was −0.3 % control. With C[C@@H]1c2nnn(-c3cc[nH]n3)c2CCN1C(=O)c1cccc(C(F)(F)F)c1Cl (single isomer, unassigned) [Example 133, (R*)-(2-Chloro-3-(trifluoromethyl)phenyl)(4-methyl-1-(1H-pyrazol-5-yl)-6,7-dihydro-1H-[1,2,3]triazolo[4,5-c]pyridin-5(4H)-yl)methanone] the “PBMC 10 μM (% control)” value was −0.2 % control. In the case of C[C@@H]1c2ncn(-c3ccc(F)cc3)c2CCN1C(=O)c1cccc(C(F)(F)F)c1Cl (single isomer, unassigned) [Example 46, (4R*)-5-{[2-Chloro-3-(trifluoromethyl)phenyl]carbonyl}-1-(4-fluorophenyl)-4-methyl-4,5,6,7-tetrahydro-1H-imidazo[4,5-c]pyridine], the “PBMC 10 μM (% control)” value is reported as 2.1 % control.
